11 compounds from ChEMBL document CHEMBL1138401, “Novel nucleotide triphosphates as potent P2Y2 agonists with enhanced stability over UTP” (Bioorg Med Chem Lett, 2007) can be followed below.

A short description of data set [1]: Metabolic stability in human bronchial epithelial cells after 120 mins. Format: ADME, cell-based, Epithelial cell. The following applies: read-out: Stability.
A short description of data set [2]: Metabolic stability in human bronchial epithelial cells after 180 mins. Format: ADME, cell-based, Epithelial cell. As to conditions: read-out: Stability.
In another data set the target is P2Y purinoceptor 2 (Homo sapiens, UniProt P41231). Briefly: Agonist activity at human P2Y2 receptor expressed in human 1321N1 by FLIPR assay. It is filed as functional.
The next data set has as its target P2Y purinoceptor 1 (Homo sapiens, UniProt P47900). The data set can be described thus: Agonist activity at human cloned P2Y1 receptor expressed in human 1321N1 by FLIPR assay. It is filed as functional.
A further data set has as its target P2Y purinoceptor 4 (Homo sapiens, UniProt P51582). Briefly: Agonist activity at human cloned P2Y4 receptor expressed in human 1321N1 by FLIPR assay. It is filed as functional.
The nature of data set [3]: Agonist activity at human cloned P2Y6 receptor expressed in human 1321N1 by FLIPR assay. Format: functional.

Molecules are shown by their SMILES. pEC50: −log10 of the molar value. Bounds are passed on as bounds.

Chain of P2Y purinoceptor 2 (P41231 whole entry): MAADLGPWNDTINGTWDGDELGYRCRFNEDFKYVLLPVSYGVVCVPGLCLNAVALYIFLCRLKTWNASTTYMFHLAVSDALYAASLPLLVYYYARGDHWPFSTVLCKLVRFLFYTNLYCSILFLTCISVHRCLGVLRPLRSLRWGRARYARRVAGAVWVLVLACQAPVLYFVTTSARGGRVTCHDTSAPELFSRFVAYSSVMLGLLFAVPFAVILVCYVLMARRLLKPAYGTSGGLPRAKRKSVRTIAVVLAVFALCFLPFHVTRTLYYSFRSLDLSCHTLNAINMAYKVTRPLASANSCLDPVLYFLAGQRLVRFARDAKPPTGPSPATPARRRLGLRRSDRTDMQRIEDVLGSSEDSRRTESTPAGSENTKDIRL
Chain of P2Y purinoceptor 1 (P47900 whole entry): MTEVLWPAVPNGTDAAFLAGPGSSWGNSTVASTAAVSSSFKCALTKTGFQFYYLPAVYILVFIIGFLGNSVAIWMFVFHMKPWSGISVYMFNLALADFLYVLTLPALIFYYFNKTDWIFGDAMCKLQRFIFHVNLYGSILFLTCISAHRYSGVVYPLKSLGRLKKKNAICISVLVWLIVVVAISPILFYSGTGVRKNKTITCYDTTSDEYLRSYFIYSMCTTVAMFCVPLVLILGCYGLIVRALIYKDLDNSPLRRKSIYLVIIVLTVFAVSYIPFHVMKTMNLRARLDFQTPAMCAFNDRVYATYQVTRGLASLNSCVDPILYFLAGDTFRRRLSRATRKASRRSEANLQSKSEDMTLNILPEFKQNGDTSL
Chain of P2Y purinoceptor 4 (P51582 whole entry): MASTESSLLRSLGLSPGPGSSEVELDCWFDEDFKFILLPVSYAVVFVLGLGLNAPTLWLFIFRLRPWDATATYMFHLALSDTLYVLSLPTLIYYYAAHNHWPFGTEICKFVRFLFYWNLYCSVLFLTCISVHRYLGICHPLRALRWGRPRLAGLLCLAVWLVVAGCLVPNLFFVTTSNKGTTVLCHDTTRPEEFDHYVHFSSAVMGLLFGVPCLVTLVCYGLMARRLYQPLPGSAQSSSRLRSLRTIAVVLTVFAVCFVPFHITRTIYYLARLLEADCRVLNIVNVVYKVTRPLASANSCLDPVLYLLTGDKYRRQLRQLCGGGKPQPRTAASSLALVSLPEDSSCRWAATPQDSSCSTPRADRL

For `O=c1c2cc(F)ccc2ccn1[C@@H]1O[C@H](COP(=O)(O)OP(=O)(O)OP(=O)(O)O)[C@@H](O)[C@H]1O`, the remaining at 2 h in data set [1] turned out to be 70%. Further, the remaining at 3 h in data set [2] is 50%.
By pEC50 is commonly meant the negative decadic logarithm of the EC50, by convention in mol/L. As for `O=P(O)(O)OP(=O)(O)OP(=O)(O)OC[C@H]1O[C@@H](c2nc3ccccc3s2)[C@H](O)[C@@H]1O`, the pEC50 is 7.66 on P2Y purinoceptor 2, less than 4.70 on P2Y purinoceptor 1, 5.38 on P2Y purinoceptor 4 and less than 4.70 in data set [3]. Moreover, the remaining at 2 h in data set [1] was found to be 50%. In addition, in data set [2], the remaining at 3 h was found to be 20%.
On to `O=c1ccn([C@@H]2O[C@H](COP(=O)(O)OP(=O)(O)OP(=O)(O)O)[C@@H](O)[C@H]2O)c(=O)[nH]1` [URIDINE TRIPHOSPHATE], for which the pEC50 was less than 5.70 at P2Y purinoceptor 1 and 6.37 in data set [3].
For `O=P(O)(O)OP(=O)(O)OP(=O)(O)OC[C@H]1O[C@@H](c2nc3c(F)cc(Cl)cc3s2)[C@H](O)[C@@H]1O`, the pEC50 is 8.15 on P2Y purinoceptor 2, less than 4.70 at P2Y purinoceptor 1, 5.37 at P2Y purinoceptor 4 and less than 4.70 in data set [3].
As to `O=P(O)(O)OP(=O)(O)OP(=O)(O)OC[C@H]1O[C@@H](c2nc3ccc(Cl)cc3s2)[C@H](O)[C@@H]1O`, the pEC50 on P2Y purinoceptor 2 is 8.10.
Same read-out and setting: under `O=P(O)(O)OP(=O)(O)OP(=O)(O)OC[C@H]1O[C@@H](c2nc3cc(F)ccc3s2)[C@H](O)[C@@H]1O` stands 8.52; under `Cc1ccc2oc([C@@H]3O[C@H](COP(=O)(O)OP(=O)(O)OP(=O)(O)O)[C@@H](O)[C@H]3O)nc2c1`, 6.41.
For the compound `COc1ccc2nc([C@@H]3O[C@H](COP(=O)(O)OP(=O)(O)OP(=O)(O)O)[C@@H](O)[C@H]3O)sc2c1`, the pEC50 on P2Y purinoceptor 2 is 7.38.
Regarding `O=P(O)(O)OP(=O)(O)OP(=O)(O)OC[C@H]1O[C@@H](c2nc3cc(C(F)(F)F)ccc3s2)[C@H](O)[C@@H]1O`, the pEC50 on P2Y purinoceptor 2 was 8.00; at P2Y purinoceptor 1, less than 4.70; at P2Y purinoceptor 4, less than 4.70; in data set [3], less than 4.70.
Compound `Cn1c([C@@H]2O[C@H](COP(=O)(O)OP(=O)(O)OP(=O)(O)O)[C@@H](O)[C@H]2O)nc2ccccc21` showed a pEC50 on P2Y purinoceptor 2 of 6.70.
`COc1cccc2sc([C@@H]3O[C@H](COP(=O)(O)OP(=O)(O)OP(=O)(O)O)[C@@H](O)[C@H]3O)nc12` had a pEC50 on P2Y purinoceptor 2 of 6.15.
